Measured values taken from ChEMBL document CHEMBL5233259, “Medicinal chemistry strategies for the development of protein tyrosine phosphatase SHP2 inhibitors and PROTAC degraders” (Eur J Med Chem, 2020).

Tests used:
[1] = target: T1, Tyrosine-protein phosphatase non-receptor type 11 (Homo sapiens, UniProt Q06124); experiment: Inhibition of SHP2 ( 1 to 525 residues) (unknown origin)
T1 sequence (Q06124 whole entry): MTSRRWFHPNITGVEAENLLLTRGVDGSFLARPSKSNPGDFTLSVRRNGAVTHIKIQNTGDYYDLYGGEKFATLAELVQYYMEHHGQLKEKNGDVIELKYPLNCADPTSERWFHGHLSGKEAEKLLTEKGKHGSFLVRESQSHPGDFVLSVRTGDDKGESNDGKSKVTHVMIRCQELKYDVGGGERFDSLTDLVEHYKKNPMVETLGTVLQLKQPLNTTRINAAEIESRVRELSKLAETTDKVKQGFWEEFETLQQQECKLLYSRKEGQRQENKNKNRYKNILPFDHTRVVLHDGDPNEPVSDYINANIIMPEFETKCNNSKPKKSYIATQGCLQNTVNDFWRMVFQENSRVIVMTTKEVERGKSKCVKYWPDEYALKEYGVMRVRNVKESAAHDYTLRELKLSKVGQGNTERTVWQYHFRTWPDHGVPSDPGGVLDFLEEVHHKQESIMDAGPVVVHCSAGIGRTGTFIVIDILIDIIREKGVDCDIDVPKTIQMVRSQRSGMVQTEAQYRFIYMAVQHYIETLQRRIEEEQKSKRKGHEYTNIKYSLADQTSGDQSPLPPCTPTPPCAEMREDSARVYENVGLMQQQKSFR

[2] = target: T2, Tyrosine-protein phosphatase non-receptor type 6 (Homo sapiens, UniProt P29350); experiment: Inhibition of SHP1 (unknown origin)
T2 sequence (P29350 whole entry): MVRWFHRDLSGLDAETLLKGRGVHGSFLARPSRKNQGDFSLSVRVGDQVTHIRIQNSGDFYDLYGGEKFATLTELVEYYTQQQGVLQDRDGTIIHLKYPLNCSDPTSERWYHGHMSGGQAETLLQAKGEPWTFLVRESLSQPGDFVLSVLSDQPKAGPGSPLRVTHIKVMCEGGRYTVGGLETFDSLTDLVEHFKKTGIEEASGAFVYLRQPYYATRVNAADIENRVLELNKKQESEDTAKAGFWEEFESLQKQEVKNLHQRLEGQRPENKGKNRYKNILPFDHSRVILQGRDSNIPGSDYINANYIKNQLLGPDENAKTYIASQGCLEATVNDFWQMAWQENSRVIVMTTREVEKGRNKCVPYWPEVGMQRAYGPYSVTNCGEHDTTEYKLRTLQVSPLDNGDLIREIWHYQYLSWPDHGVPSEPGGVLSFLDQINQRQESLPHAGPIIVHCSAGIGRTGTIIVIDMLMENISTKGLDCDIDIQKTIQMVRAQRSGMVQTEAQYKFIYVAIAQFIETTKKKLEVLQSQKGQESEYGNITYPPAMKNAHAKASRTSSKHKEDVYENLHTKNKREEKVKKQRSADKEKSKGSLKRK

[3] = target: T3, Tyrosine-protein phosphatase non-receptor type 1 (Homo sapiens, UniProt P18031); experiment: Inhibition of PTP1B (unknown origin)
T3 sequence (P18031 whole entry): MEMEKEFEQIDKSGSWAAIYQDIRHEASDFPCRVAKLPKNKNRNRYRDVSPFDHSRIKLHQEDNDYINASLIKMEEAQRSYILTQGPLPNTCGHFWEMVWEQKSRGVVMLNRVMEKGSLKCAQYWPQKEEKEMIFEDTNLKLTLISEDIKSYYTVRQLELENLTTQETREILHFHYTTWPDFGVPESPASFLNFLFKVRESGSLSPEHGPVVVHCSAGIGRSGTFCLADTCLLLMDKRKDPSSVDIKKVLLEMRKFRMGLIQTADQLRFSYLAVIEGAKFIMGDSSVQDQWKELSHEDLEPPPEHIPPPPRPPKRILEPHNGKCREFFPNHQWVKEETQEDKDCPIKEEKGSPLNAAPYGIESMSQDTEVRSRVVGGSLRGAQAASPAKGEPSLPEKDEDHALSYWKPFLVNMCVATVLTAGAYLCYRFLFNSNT

[4] = target: T2, Tyrosine-protein phosphatase non-receptor type 6
Description: Inhibition of recombinant GST-fused human SHP1 (205 to 597 residues) using DiFMUP as substrate incubated for 30 mins by fluorescence based assay

[5] = target: T3, Tyrosine-protein phosphatase non-receptor type 1; experiment: Inhibition of recombinant GST-fused human PTP1B (1 to 435 residues) using DiFMUP as substrate incubated for 30 mins by fluorescence based assay
[6] = target: T1, Tyrosine-protein phosphatase non-receptor type 11
Description: Inhibition of SHP2 (unknown origin)

COc1cccc(-c2nnc3n(Cc4ccccc4Cl)c(=O)c4ccccc4n23)c1O
IC50 [1]: 60 µM

O=C1/C(=N\Nc2ccc(S(=O)(=O)O)cc2)C(c2ccc([N+](=O)[O-])cc2)=NN1c1ccccc1
IC50 [2]: 30 µM
IC50 [3]: 19 µM

O=S(=O)(O)c1ccc2cc(/N=N/c3cc(S(=O)(=O)O)c4cccnc4c3O)ccc2c1
IC50 [4]: 0.355 µM
IC50 [5]: 1.69 µM

O=C1Nc2ccc(S(=O)(=O)O)cc2/C1=N/Nc1ccccc1[N+](=O)[O-]
IC50 [6]: 0.8 µM
